Test results taken from ChEMBL document CHEMBL4371021, “BH3 mimetics derived from Bim-BH3 domain core region show PTP1B inhibitory activity” (Bioorg Med Chem Lett, 2019).
pIC50, pKd: −log10 of the molar value. Active and inactive are the calls of the source. No cut-off for these calls is given here. Residues, ends and D or L forms follow the SMILES beside them.

Tests used:
HepG2 [1] = assay: Induction of insulin-stimulated 2-NBDG uptake in palmitic acid-induced insulin resistant human HepG2 cells at 1 umol/L preincubated for 24 hrs followed by insulin stimulation and measured after 30 mins by fluorescence assay; format: functional, cell-based
[2] = target: T1, Tyrosine-protein phosphatase non-receptor type 1 (Homo sapiens, UniProt P18031); assay: Inhibition of recombinant human N-terminal poly histidine-tagged PTP1B (Glu2 to Asn321 residues) expressed in Escherichia coli using pNPP as substrate measured for 4 mins
T1 sequence (P18031 whole entry): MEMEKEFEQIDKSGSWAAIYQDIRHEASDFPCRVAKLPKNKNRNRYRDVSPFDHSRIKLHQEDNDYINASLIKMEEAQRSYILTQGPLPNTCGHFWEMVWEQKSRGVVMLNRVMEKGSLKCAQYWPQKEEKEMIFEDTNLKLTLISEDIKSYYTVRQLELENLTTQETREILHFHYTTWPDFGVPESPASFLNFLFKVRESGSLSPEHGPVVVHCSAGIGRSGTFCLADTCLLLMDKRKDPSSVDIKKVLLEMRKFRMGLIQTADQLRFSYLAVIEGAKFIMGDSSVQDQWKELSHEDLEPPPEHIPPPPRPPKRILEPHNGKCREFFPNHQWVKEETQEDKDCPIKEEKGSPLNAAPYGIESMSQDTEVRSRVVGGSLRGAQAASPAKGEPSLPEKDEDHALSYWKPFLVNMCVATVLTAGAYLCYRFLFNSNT

[3] = target: Receptor-type tyrosine-protein phosphatase F (Homo sapiens) (UniProt P10586); assay: Inhibition of LAR (unknown origin) at 0.5 umol/L using OMFP as substrate measured for 4 mins relative to control
[4] = target: Tyrosine-protein phosphatase non-receptor type 6 (Homo sapiens) (UniProt P29350); assay: Inhibition of SHP1 (unknown origin) at 5 umol/L using OMFP as substrate measured for 4 mins relative to control
[5] = target: Receptor-type tyrosine-protein phosphatase F (Homo sapiens) (UniProt P10586); assay: Inhibition of LAR (unknown origin) at 10 umol/L using OMFP as substrate measured for 4 mins relative to control
[6] = target: T2, Tyrosine-protein phosphatase non-receptor type 2 (Homo sapiens) (UniProt P17706); assay: Inhibition of human GST-tagged TCPTP (41 to 1075 residues) expressed in Escherichia coli at 0.5 umol/L using pNPP as substrate measured for 4 mins relative to control
T2 sequence (whole entry): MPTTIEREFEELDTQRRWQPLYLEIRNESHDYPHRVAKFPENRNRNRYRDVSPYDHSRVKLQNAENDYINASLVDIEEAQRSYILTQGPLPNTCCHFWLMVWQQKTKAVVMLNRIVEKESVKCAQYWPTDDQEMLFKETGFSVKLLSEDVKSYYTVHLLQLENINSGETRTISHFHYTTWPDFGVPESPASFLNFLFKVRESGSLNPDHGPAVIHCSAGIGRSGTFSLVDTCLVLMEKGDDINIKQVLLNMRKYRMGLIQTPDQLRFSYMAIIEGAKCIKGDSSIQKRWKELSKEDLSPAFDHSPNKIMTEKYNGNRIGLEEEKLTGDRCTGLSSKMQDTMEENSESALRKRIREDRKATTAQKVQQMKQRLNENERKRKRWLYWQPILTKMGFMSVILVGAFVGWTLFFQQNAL

[7] = target: Tyrosine-protein phosphatase non-receptor type 6 (Homo sapiens) (UniProt P29350); assay: Inhibition of SHP1 (unknown origin) at 2.5 umol/L using OMFP as substrate measured for 4 mins relative to control
[8] = target: T3, Tyrosine-protein phosphatase non-receptor type 1 (Homo sapiens) (UniProt P18031); assay: Inhibition of recombinant human N-terminal poly histidine-tagged PTP1B (Glu2 to Asn321 residues) expressed in Escherichia coli at 1 umol/L using pNPP as substrate measured for 4 mins relative to control
T3 sequence (whole entry): T1 sequence (P18031 whole entry)

HepG2 [9] = assay: Cytotoxicity against human HepG2 cells assessed as effect on cell viability at 0.1 to 10 umol/L after 24 hrs by MTT assay; format: cell-based; settings: hepg2, 24 h
[10] = target: Tyrosine-protein phosphatase non-receptor type 6 (Homo sapiens) (UniProt P29350); assay: Inhibition of SHP1 (unknown origin) at 10 umol/L using OMFP as substrate measured for 4 mins relative to control
[11] = target: T4, Tyrosine-protein phosphatase non-receptor type 11 (Homo sapiens) (UniProt Q06124); assay: Inhibition of human GST-tagged SHP2 (1116 to 2162 residues) at 10 umol/L using OMFP as substrate measured for 4 mins relative to control
T4 sequence (whole entry): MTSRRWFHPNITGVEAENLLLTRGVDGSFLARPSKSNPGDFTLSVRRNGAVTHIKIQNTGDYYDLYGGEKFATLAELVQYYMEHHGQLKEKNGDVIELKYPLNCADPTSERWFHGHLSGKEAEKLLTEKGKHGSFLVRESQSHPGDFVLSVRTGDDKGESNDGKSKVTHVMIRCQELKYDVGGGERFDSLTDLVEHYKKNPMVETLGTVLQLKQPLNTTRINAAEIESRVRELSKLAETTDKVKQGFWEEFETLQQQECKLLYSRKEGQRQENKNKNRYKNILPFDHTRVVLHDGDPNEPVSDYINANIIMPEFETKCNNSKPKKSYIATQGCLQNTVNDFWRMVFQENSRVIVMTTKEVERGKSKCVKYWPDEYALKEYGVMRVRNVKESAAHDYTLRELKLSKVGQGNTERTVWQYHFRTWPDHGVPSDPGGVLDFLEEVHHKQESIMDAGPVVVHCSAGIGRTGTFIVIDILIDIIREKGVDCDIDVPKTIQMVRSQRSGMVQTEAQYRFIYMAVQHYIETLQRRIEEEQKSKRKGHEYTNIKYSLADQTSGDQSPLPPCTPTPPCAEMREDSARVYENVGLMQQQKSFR

[12] = target: Receptor-type tyrosine-protein phosphatase F (Homo sapiens) (UniProt P10586); assay: Inhibition of LAR (unknown origin) at 20 umol/L using OMFP as substrate measured for 4 mins relative to control
[13] = target: T1, Tyrosine-protein phosphatase non-receptor type 1; assay: Binding affinity to recombinant human N-terminal poly histidine-tagged PTP1B (Glu2 to Asn321 residues) expressed in Escherichia coli by surface plasmon resonance analysis
HepG2 [14] = assay: Inhibition of PTP1B expression in palmitic acid-induced insulin resistant human HepG2 cells at 0.1 to 10 uM by western blot analysis; format: functional, cell-based
[15] = target: T2, Tyrosine-protein phosphatase non-receptor type 2 (Homo sapiens); assay: Inhibition of human GST-tagged TCPTP (41 to 1075 residues) expressed in Escherichia coli at 5 umol/L using pNPP as substrate measured for 4 mins relative to control
[16] = target: Receptor-type tyrosine-protein phosphatase F (Homo sapiens) (UniProt P10586); assay: Inhibition of LAR (unknown origin) at 1 umol/L using OMFP as substrate measured for 4 mins relative to control
[17] = target: T4, Tyrosine-protein phosphatase non-receptor type 11 (Homo sapiens); assay: Inhibition of human GST-tagged SHP2 (1116 to 2162 residues) at 2.5 umol/L using OMFP as substrate measured for 4 mins relative to control
[18] = target: T2, Tyrosine-protein phosphatase non-receptor type 2 (Homo sapiens); assay: Inhibition of human GST-tagged TCPTP (41 to 1075 residues) expressed in Escherichia coli at 2.5 umol/L using pNPP as substrate measured for 4 mins relative to control
[19] = target: T3, Tyrosine-protein phosphatase non-receptor type 1 (Homo sapiens); assay: Inhibition of recombinant human N-terminal poly histidine-tagged PTP1B (Glu2 to Asn321 residues) expressed in Escherichia coli at 40 umol/L using pNPP as substrate measured for 4 mins relative to control
[20] = target: Receptor-type tyrosine-protein phosphatase F (Homo sapiens) (UniProt P10586); assay: Inhibition of LAR (unknown origin) at 2.5 umol/L using OMFP as substrate measured for 4 mins relative to control
[21] = target: T3, Tyrosine-protein phosphatase non-receptor type 1 (Homo sapiens); assay: Binding affinity to recombinant human N-terminal poly histidine-tagged PTP1B (Glu2 to Asn321 residues) expressed in Escherichia coli assessed as dissociation rate constant by surface plasmon resonance analysis
[22] = target: T3, Tyrosine-protein phosphatase non-receptor type 1 (Homo sapiens); assay: Inhibition of recombinant human N-terminal poly histidine-tagged PTP1B (Glu2 to Asn321 residues) expressed in Escherichia coli at 10 umol/L using pNPP as substrate measured for 4 mins relative to control
[23] = target: T4, Tyrosine-protein phosphatase non-receptor type 11 (Homo sapiens); assay: Inhibition of human GST-tagged SHP2 (1116 to 2162 residues) at 0.5 umol/L using OMFP as substrate measured for 4 mins relative to control
[24] = target: T2, Tyrosine-protein phosphatase non-receptor type 2 (Homo sapiens); assay: Inhibition of human GST-tagged TCPTP (41 to 1075 residues) expressed in Escherichia coli at 20 umol/L using pNPP as substrate measured for 4 mins relative to control
[25] = target: T3, Tyrosine-protein phosphatase non-receptor type 1 (Homo sapiens); assay: Inhibition of recombinant human N-terminal poly histidine-tagged PTP1B (Glu2 to Asn321 residues) expressed in Escherichia coli at 20 umol/L using pNPP as substrate measured for 4 mins relative to control
[26] = target: T3, Tyrosine-protein phosphatase non-receptor type 1 (Homo sapiens); assay: Inhibition of recombinant human N-terminal poly histidine-tagged PTP1B (Glu2 to Asn321 residues) expressed in Escherichia coli at 5 umol/L using pNPP as substrate measured for 4 mins relative to control
[27] = target: Tyrosine-protein phosphatase non-receptor type 6 (Homo sapiens) (UniProt P29350); assay: Inhibition of SHP1 (unknown origin) at 0.5 umol/L using OMFP as substrate measured for 4 mins relative to control
[28] = target: Receptor-type tyrosine-protein phosphatase F (Homo sapiens) (UniProt P10586); assay: Inhibition of LAR (unknown origin) at 5 umol/L using OMFP as substrate measured for 4 mins relative to control
[29] = target: T4, Tyrosine-protein phosphatase non-receptor type 11 (Homo sapiens); assay: Inhibition of human GST-tagged SHP2 (1116 to 2162 residues) at 5 umol/L using OMFP as substrate measured for 4 mins relative to control
[30] = target: T2, Tyrosine-protein phosphatase non-receptor type 2 (Homo sapiens); assay: Inhibition of human GST-tagged TCPTP (41 to 1075 residues) expressed in Escherichia coli at 1 umol/L using pNPP as substrate measured for 4 mins relative to control
[31] = target: T3, Tyrosine-protein phosphatase non-receptor type 1 (Homo sapiens); assay: Binding affinity to recombinant human N-terminal poly histidine-tagged PTP1B (Glu2 to Asn321 residues) expressed in Escherichia coli assessed as association rate constant by surface plasmon resonance analysis
HepG2 [32] = assay: Induction of insulin-stimulated 2-NBDG uptake in palmitic acid-induced insulin resistant human HepG2 cells at 1 to 10 umol/L preincubated for 24 hrs followed by insulin stimulation and measured after 30 mins by fluorescence assay; format: functional, cell-based
[33] = target: Tyrosine-protein phosphatase non-receptor type 6 (Homo sapiens) (UniProt P29350); assay: Inhibition of SHP1 (unknown origin) at 1 umol/L using OMFP as substrate measured for 4 mins relative to control
[34] = target: T4, Tyrosine-protein phosphatase non-receptor type 11 (Homo sapiens); assay: Inhibition of human GST-tagged SHP2 (1116 to 2162 residues) at 1 umol/L using OMFP as substrate measured for 4 mins relative to control
[35] = target: T3, Tyrosine-protein phosphatase non-receptor type 1 (Homo sapiens); assay: Inhibition of recombinant human N-terminal poly histidine-tagged PTP1B (Glu2 to Asn321 residues) expressed in Escherichia coli at 0.5 umol/L using pNPP as substrate measured for 4 mins relative to control
[36] = target: Tyrosine-protein phosphatase non-receptor type 6 (Homo sapiens) (UniProt P29350); assay: Inhibition of SHP1 (unknown origin) at 20 umol/L using OMFP as substrate measured for 4 mins relative to control
[37] = target: T3, Tyrosine-protein phosphatase non-receptor type 1 (Homo sapiens); assay: Inhibition of recombinant human N-terminal poly histidine-tagged PTP1B (Glu2 to Asn321 residues) expressed in Escherichia coli at 2.5 umol/L using pNPP as substrate measured for 4 mins relative to control
[38] = target: T2, Tyrosine-protein phosphatase non-receptor type 2 (Homo sapiens); assay: Inhibition of human GST-tagged TCPTP (41 to 1075 residues) expressed in Escherichia coli at 10 umol/L using pNPP as substrate measured for 4 mins relative to control
[39] = target: T4, Tyrosine-protein phosphatase non-receptor type 11 (Homo sapiens); assay: Inhibition of human GST-tagged SHP2 (1116 to 2162 residues) at 20 umol/L using OMFP as substrate measured for 4 mins relative to control

Sequence of Receptor-type tyrosine-protein phosphatase F (Homo sapiens) (P10586 whole entry, the tested form may be a part): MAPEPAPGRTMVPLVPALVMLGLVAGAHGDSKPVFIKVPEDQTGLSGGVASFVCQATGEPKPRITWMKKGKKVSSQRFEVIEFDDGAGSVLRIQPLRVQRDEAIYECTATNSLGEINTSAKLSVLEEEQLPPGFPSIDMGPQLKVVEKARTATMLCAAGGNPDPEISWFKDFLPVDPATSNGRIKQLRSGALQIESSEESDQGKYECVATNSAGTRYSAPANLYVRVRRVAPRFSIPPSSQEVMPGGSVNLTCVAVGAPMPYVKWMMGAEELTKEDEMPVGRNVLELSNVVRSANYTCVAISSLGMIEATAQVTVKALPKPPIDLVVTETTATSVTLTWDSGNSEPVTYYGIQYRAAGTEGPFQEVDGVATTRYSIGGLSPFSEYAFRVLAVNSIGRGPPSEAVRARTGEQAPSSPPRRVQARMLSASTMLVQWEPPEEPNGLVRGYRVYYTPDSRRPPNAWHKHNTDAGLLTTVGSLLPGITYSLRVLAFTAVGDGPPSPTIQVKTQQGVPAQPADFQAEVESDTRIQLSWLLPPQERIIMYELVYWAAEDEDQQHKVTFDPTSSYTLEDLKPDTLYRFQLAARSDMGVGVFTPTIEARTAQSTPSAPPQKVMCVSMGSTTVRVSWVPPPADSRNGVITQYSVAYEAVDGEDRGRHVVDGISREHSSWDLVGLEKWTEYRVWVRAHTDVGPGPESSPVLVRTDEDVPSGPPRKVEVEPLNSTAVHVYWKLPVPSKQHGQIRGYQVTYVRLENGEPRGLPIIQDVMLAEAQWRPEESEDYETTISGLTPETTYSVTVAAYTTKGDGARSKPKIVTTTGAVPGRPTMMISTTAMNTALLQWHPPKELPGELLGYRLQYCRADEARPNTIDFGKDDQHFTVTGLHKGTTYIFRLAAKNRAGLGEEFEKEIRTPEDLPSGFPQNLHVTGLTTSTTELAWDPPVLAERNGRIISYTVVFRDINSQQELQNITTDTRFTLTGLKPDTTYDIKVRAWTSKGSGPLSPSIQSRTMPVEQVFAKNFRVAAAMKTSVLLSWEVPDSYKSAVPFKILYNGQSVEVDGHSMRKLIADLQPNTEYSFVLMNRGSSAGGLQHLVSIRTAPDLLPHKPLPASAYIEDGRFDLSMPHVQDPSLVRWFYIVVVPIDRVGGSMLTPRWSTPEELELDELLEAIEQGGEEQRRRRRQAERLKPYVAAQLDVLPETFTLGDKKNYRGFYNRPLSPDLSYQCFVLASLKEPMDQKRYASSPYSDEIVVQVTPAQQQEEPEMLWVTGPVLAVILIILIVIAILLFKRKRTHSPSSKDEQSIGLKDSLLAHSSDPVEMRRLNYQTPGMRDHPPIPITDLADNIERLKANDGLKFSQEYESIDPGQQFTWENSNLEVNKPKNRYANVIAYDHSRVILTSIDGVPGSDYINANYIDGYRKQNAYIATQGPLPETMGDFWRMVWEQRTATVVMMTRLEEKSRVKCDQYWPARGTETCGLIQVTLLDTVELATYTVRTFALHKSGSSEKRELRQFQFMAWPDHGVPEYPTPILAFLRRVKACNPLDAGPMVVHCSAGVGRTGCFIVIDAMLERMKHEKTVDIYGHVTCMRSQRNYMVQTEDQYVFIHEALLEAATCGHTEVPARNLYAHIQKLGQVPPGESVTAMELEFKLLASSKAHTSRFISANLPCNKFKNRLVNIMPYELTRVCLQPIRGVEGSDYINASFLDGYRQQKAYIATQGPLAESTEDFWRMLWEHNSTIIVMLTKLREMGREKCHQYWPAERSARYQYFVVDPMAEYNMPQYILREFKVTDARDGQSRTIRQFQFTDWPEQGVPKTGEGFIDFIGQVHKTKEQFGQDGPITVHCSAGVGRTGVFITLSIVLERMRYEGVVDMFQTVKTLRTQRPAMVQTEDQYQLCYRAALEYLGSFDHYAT
Sequence of Tyrosine-protein phosphatase non-receptor type 6 (Homo sapiens) (P29350 whole entry, the tested form may be a part): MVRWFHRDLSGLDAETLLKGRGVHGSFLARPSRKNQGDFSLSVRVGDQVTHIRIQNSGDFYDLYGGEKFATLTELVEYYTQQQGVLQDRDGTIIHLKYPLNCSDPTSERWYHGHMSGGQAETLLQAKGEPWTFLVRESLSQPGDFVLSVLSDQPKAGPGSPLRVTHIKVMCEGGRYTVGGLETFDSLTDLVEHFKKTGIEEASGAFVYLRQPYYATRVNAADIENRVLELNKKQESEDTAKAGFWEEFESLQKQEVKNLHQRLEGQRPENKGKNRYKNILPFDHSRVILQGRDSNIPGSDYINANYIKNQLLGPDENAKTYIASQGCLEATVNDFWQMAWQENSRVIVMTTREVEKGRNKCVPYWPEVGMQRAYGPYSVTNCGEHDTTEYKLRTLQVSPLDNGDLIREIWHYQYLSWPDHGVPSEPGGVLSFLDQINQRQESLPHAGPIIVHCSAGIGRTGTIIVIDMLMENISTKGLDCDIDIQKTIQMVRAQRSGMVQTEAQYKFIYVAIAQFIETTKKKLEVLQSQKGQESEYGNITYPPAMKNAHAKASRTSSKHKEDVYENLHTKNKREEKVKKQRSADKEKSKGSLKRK

## CN(CCOc1ccc(CC2SC(=O)NC2=O)cc1)c1ccccn1 (centres undefined)
HepG2 [1]
  Activity: Active

## CCCCCCCCCCCCCCCC(=O)N[C@H](C(=O)N[C@@H](C)C(=O)N[C@@H](CCC(N)=O)C(=O)N[C@@H](CCC(=O)O)C(=O)N[C@@H](CC(C)C)C(=O)N[C@@H](CCCNC(=N)N)C(=O)N[C@@H](CCCNC(=N)N)C(=O)N[C@H](C(=O)NCC(=O)N[C@@H](CC(=O)O)C(=O)N[C@@H](CCC(=O)O)C(=O)N[C@@H](Cc1ccccc1)C(N)=O)[C@@H](C)CC)[C@@H](C)CC (HELM PEPTIDE1{[CCCCCCCCCCCCCCCC(=O)[*:2]].I.A.Q.E.L.R.R.I.G.D.E.F.[am]}$$$$V2.0)
[2]
  pIC50: 5.92
[3]
  inhibition: 2.02%
[4]
  inhibition: 2.22%
[5]
  inhibition: 3.36%
[6]
  inhibition: 5.25%
[7]
  inhibition: 2.88%
[8]
  inhibition: 47.2%
HepG2 [9]
  Activity: Non-Toxic
[10]
  inhibition: 3.89%
[11]
  inhibition: 2.77%
[12]
  inhibition: 1.73%
[13]
  pKd: 8.08
HepG2 [14]
  inhibition: Active
[15]
  inhibition: 8.63%
[16]
  inhibition: 3.88%
[17]
  inhibition: 3.52%
[18]
  inhibition: 8.22%
[19]
  inhibition: 98%
[20]
  inhibition: 2.33%
[21]
  Kdiss: 1.82 ×10⁻⁴ /s
[22]
  inhibition: 92%
[23]
  inhibition: 0.96%
[24]
  inhibition: 35.2%
[25]
  inhibition: 93.7%
[26]
  inhibition: 89.3%
[27]
  inhibition: 2.03%
[28]
  inhibition: 1.52%
[29]
  inhibition: 2.83%
[30]
  inhibition: 6.22%
[31]
  Ka: 2.17 ×10⁴ /Ms
HepG2 [32]
  Activity: Active
[33]
  inhibition: 1.36%
[34]
  inhibition: 2.02%
[35]
  inhibition: 8.68%
[36]
  inhibition: 9.22%
[37]
  inhibition: 80.6%
[38]
  inhibition: 12.2%
[39]
  inhibition: 10.6%
